# Experimental data reported in patent publication US12594256B2, “A19-144, A2-73 and certain anticholinesterase inhibitor compositions and method for anti-seizure therapy” (priority 2014, dated 2026).
# Read-outs that look alike come from different tables or passages of the source.
# Tests used:
# [1] = Pharmacokinetics of metabolite AV19-144 in plasma after oral AV2-73 (LC-MS/MS); format: in vivo; settings: for MRT: read-out: mean residence time of AV19-144
# Method: After separation from human plasma analytes were injected into a LC-MS/MS. […] A weighted (1/x) regression 2nd order was performed to determine the concentration of the analytes. The study was conducted in accordance with the Principles of Good Laboratory Practice (GLP) as described under § 19, German Chemical Law. The validation based on the EG-Dok.
# Aβ25-35-induced toxicity [2] = test: Aβ25-35 model, pre- and post-peptide administration schedules (Y maze, passive avoidance, hippocampal lipid peroxidation); format: in vivo, mice; settings: for anti-amnesic and neuroprotective effect against amyloid toxicity: drug administered before or after the amyloid peptide challenge
# seizures = test: Seizure prophylaxis in single subjects (Examples 1-6); format: in vivo, human
# Method: A person is experiencing 4 to 7 seizures per day with a baseline of 6.6 seizures per day. A19-144 is administered daily at 2.0 mg for 5 days.
# The subject is administered low dose donepezil (4 mg daily) for 5 days cotimely with continued A19-144 administration daily at 2.0 mg for 5 days.
# A person is experiencing 6 to 8 seizures per day with a baseline of 6.6 seizures per day. A19-144 is administered daily at 2.0 mg for 5 days.
# The subject is administered low dose Eslicarbazepine acetate at 600 mg/day; for 5 days cotimely with continued A19-144 administration daily at 2.0 mg for 5 days.
# A person is experiencing seizures 3.2 per day. The subject is administered lacosamide at 60 mg two times per day for 5 days and cotimely administration of A19-144 daily at 2.0 mg for 5 days.
# The person is experiencing an average of 3.3 seizures per day. The subject is administered Levetiracetam at 400 mg two times per day for 5 days and cotimely administration of 3.0 mg of A19-144 daily for 5 days.
# σ1 = σ1 (Homo sapiens, UniProt Q99720); settings: as compared with σ1 sites (so in the source); cited from earlier work
# σ1, sequence (Q99720 whole entry): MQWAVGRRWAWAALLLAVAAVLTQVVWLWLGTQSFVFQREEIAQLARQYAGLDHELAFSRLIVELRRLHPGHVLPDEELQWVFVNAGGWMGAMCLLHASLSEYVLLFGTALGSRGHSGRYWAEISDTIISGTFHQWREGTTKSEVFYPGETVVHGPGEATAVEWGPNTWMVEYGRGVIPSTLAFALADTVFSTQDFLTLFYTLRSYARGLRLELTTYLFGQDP
# σ2 sites = σ2 sites (Homo sapiens, UniProt Q5BJF2); settings: reported binding analyses; cited from earlier work
# σ2 sites, sequence (Q5BJF2 whole entry): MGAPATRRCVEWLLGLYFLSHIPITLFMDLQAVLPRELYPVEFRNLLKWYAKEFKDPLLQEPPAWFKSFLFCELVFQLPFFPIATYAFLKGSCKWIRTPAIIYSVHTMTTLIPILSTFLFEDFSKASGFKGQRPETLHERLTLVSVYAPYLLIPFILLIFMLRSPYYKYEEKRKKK
# [3] = target: muscarinic M1-M4 receptors; settings: screening profile; cited from earlier work
# sodium channel site 2 = settings: screening profile; cited from earlier work
# NMDA receptors = settings: screening profile; cited from earlier work
# Aβ25-35-induced toxicity [4] = settings: cited from earlier work
# [5] = tested on: muscarinic acetylcholine receptors; settings: believed to bind; cited from earlier work
# sigma-1 receptors = sigma-1 receptors (Homo sapiens, UniProt Q99720); settings: believed to bind; cited from earlier work
# sigma-1 receptors, sequence (Q99720 whole entry): as the sequence (Q99720 whole entry) above
# [6] = 0.3 mg/kg ip once a day, day 7 to day 13 after Aβ25-35, measured 14 days after Aβ25-35
# [7] = 0.1 or 0.3 mg/kg ip once a day, day -7 to day -1 before Aβ25-35, 7 days after Aβ25-35
smiles,measurement,setting,value
"CN(C)CC1CCOC1(c1ccccc1)c1ccccc1.Cl (centres unmarked) [A2-73, 1-(2,2-diphenyltetrahydrofuran-3-yl)-N,N-dimethylmethanamine hydrochloride]",biotransformation of AV2-73 to main metabolite AV19-144,[1]; after oral administration,rapid and extensive biotransformation
same,anti-amnesic and neuroprotective effect against amyloid toxicity,Aβ25-35-induced toxicity [2],effective in pre- and post-protection
same,results of Examples 1 through 6 (seizure prophylaxis),seizures; A2-73 substituted for A19-144,similarly effective
same,selectivity for the σ1 subtype,σ1,better selectivity for the σ1 subtype
same,affinity for σ2 sites,σ2 sites,no affinity
same,IC50,[3],3.3 to 5.2 µM
same,IC50,sodium channel site 2,5.1 µM
same,IC50,NMDA receptors,8 µM
same,Aβ25-35-induced endogenous Aβ1-42 seeding,Aβ25-35-induced toxicity [4]; reported,decreasing
"CNCC1CCOC1(c1ccccc1)c1ccccc1.Cl (centres unmarked) [A19-144, 1-(2,2-diphenyltetrahydrofuran-3-yl)-N-methylmethanamine hydrochloride]",Cmax,"[1]; human, oral, across the 10 to 60 mg AV2-73 dose steps, plasma, FIG. 1",1.31 to 22.3 ng/mL
same,half-life,"[1]; human, oral, across the 10 to 60 mg AV2-73 dose steps, plasma, FIG. 1, read-out: mean terminal elimination half-life t1/2 of AV19-144",8.56 to 28.7 h
same,MRT,"[1]; human, plasma, oral, after 10 mg AV2-73, FIG. 2",14.3 h
same,MRT,"[1]; human, plasma, oral, after 60 mg AV2-73, FIG. 2",42.7 h
same,lipid peroxidation increase,Aβ25-35-induced toxicity [2]; [6],effective
same,memory deficits,Aβ25-35-induced toxicity [2]; [6],effective
same,Aβ25-35-induced lipid peroxidation in the hippocampus,Aβ25-35-induced toxicity [2]; [7],blocks
same,Aβ25-35-induced memory deficits (spontaneous alternation in the Y maze and passive avoidance response),Aβ25-35-induced toxicity [2]; [7],blocks
same,anti-amnesic and neuroprotective effect against amyloid toxicity,Aβ25-35-induced toxicity [2],effective in pre- and post-protection
same,Aβ25-35-induced toxicity and learning impairments,Aβ25-35-induced toxicity [2]; injected repeatedly one week after the peptide,able to reverse
same,seizures per day,"seizures; Example 1: person, baseline 6.6 per day, 2.0 mg daily for 5 days, for 8 weeks post dosing",2.2 per day
same,seizures per day,"seizures; Example 3: person, baseline 6.6 per day, 2.0 mg daily for 5 days, for 8 weeks post dosing",1.2 per day
same,seizures per day,"seizures; person of Example 1, at 6 months post dosing",2.2 per day
same,seizures per day (average),"seizures; person of Example 3, at 6 months post dosing",1.2 per day
same,affinity for muscarinic acetylcholine receptors,[5],low micromolar range
same,affinity for sigma-1 receptors,sigma-1 receptors,low micromolar range
same,Aβ25-35-induced P-Akt decrease and P-GSK-3β increase,Aβ25-35-induced toxicity [4]; Lahmy et al. 2013,blocked
same,hyperphosphorylation of Tau on physiological (AT-8) and pathological (AT-100) epitopes,Aβ25-35-induced toxicity [4]; in the dose-range tested,attenuated
same,"oxidative stress, caspases induction, cellular loss and learning and memory deficits",Aβ25-35-induced toxicity [4]; mice one week after injection of oligomeric Aβ25-35 (Villard et al. 2011),attenuating
same,neuroprotection against amyloid toxicity,"Aβ25-35-induced toxicity [4]; mice, reported",neuroprotective potential
